Tests used:
human LTA4 hydrolase = biological target: T1, human LTA4 hydrolase (Homo sapiens, UniProt P09960); assay: LTA4H Enzyme assay (peptidase, Arg-AMC cleavage); format: biochemical; settings: LTA4H enzyme 1 nM, Arg-AMC substrate 50 μM, room temperature 1 h, fluorescence 380/460 nm
T1 sequence (P09960 1-611): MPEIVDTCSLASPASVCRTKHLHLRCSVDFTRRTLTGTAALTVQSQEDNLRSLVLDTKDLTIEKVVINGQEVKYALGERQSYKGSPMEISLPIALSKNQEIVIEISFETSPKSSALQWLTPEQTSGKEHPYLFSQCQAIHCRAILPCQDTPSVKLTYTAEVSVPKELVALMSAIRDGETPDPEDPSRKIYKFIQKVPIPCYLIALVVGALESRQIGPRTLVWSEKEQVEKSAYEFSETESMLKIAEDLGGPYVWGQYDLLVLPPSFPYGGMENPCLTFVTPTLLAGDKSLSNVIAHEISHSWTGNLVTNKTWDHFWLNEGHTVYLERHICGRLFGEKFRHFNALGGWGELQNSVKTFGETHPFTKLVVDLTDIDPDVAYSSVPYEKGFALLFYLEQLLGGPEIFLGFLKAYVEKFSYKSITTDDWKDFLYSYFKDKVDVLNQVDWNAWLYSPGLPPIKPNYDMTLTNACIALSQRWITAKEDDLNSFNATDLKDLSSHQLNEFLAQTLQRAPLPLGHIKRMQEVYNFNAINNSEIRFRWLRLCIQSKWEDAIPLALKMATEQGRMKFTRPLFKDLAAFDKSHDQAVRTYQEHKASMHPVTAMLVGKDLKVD
Procedure, shortened: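 Human LTA4H (1 nM final) incubated with compound and Arg-AMC (50 μM final) in 50 mM Tris-HCl pH 7.5, 100 mM KCl, 0.5% BSA, 1 h at room temperature. Product read as AMC fluorescence (ex 380/em 460 nm); IC50 reported.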

[1] = tested on: LTB4 synthesis in human whole blood; assay: human whole blood (HWB) assay, inhibition of LTB4 production; format: cell-based; settings: heparinized human whole blood, calcimycin 20 μM stimulation, plasma LTB4
Procedure, shortened: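 Heparinized human whole blood preincubated with compound 15 min at 37 °C, then stimulated with 20 μM (final) calcimycin for 30 min at 37 °C. Plasma LTB4 measured by antibody-based HTRF; IC50 reported.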

IC50 (human LTA4 hydrolase) [nM]	IC50 [1] [nM]	SMILES
0.66	220	O=C1CCCCN1C1CCN(Cc2ccc3cc(Oc4ccc(-c5ccn[nH]5)cn4)ccc3n2)CC1 [Example 209, 1′-{6-[5-(2H-Pyrazol-3-yl)-pyridin-2-yloxy]-quinolin-2-ylmethyl}-[1,4′]bipiperidinyl-2-one]
0.82	230	O[C@H]1CCN(Cc2ccc3cc(Oc4ccc(-c5ccn[nH]5)cn4)ccc3n2)C1 [Example 210, (S)-1-{6-[5-(2H-Pyrazol-3-yl)-pyridin-2-yloxy]-quinolin-2-ylmethyl}-pyrrolidin-3-ol]
0.8	230	O=C1COCCN1C1CCN(Cc2ccc3cc(Oc4ccc(-c5ccn[nH]5)cn4)ccc3n2)CC1 [Example 211, 4-(1-{6-[5-(2H-Pyrazol-3-yl)-pyridin-2-yloxy]-quinolin-2-ylmethyl}-piperidin-4-yl)-morpholin-3-one]
1.2	250	COC1CCN(Cc2ccc3cc(Oc4ccc(-c5ccn[nH]5)cn4)ccc3n2)CC1 [Example 212, 2-(4-Methoxy-piperidin-1-ylmethyl)-6-[5-(2H-pyrazol-3-yl)-pyridin-2-yloxy]-quinoline]
0.77	390	O=c1cccc2n1C[C@H]1C[C@@H]2CN(Cc2ccc3cc(Oc4ccc(-c5ccn[nH]5)cn4)ccc3n2)C1 [Example 213, (1R,5S)-3-{6-[5-(2H-Pyrazol-3-yl)-pyridin-2-yloxy]-quinolin-2-ylmethyl}-1,2,3,4,5,6-hexahydro-1,5-methano-pyrido[1,2-a][1,5]diazocin-8-one]
2.5	400	c1cc(-c2ccc(Oc3ccc4nc(CNCCC5CCOCC5)ccc4c3)nc2)[nH]n1 [Example 214, {6-[5-(2H-Pyrazol-3-yl)-pyridin-2-yloxy]-quinolin-2-ylmethyl}-[2-(tetrahydro-pyran-4-yl)-ethyl]-amine]
5	680	c1ccc(OC2CCN(Cc3ccc4cc(Oc5ccc(-c6ccn[nH]6)cn5)ccc4n3)CC2)nc1 [Example 215, 6-[5-(2H-Pyrazol-3-yl)-pyridin-2-yloxy]-2-[4-(pyridin-2-yloxy)-piperidin-1-ylmethyl]-quinoline]
0.2	110	OC1CN(Cc2ccc3c(ccn3Cc3ccc(-c4ccn[nH]4)cc3)c2)C1 [Example 216, 1-{1-[4-(2H-Pyrazol-3-yl)-benzyl]-1H-indol-5-ylmethyl}-azetidin-3-ol]
0.12	81	c1cc(-c2ccc(Oc3ccc4nn(CCN5CCCC5)cc4c3)cc2)[nH]n1 [Example 217, 5-[4-(2H-Pyrazol-3-yl)-phenoxy]-2-(2-pyrrolidin-1-yl-ethyl)-2H-indazole]
0.097	110	c1cc(-c2ccc(Oc3ccc4c(c3)OC(CN3CCCC3)C4)cc2)[nH]n1 (centres unmarked) [Example 218, 5-[4-(2-Pyrrolidin-1-ylmethyl-2,3-dihydro-benzofuran-6-yloxy)-phenyl]-1H-pyrazole]
0.22	110	CC(=O)NC1CCN(CC2Cc3ccc(Oc4ccc(-c5ccn[nH]5)cc4)cc3O2)CC1 (centres unmarked) [Example 219, N-(1-[6-[4-(2H-Pyrazol-3-yl)-phenoxy]-2,3-dihydro-benzofuran-2-ylmethyl]-piperidin-4-yl)-acetamide]
1.7	160	c1cc(-c2cnc(Oc3ccc4nc(CN5CCCC5)ccc4c3)nc2)[nH]n1 [Example 220, 6-[5-(2H-Pyrazol-3-yl)-pyrimidin-2-yloxy]-2-pyrrolidin-1-ylmethyl-quinoline]
0.27	170	CC(=O)N1CCN(Cc2cc3ccc(Oc4ccc(-c5ccn[nH]5)cn4)cc3[nH]2)CC1 [Example 221, 1-(4-{6-[5-(2H-Pyrazol-3-yl)-pyridin-2-yloxy]-1H-indol-2-ylmethyl}-piperazin-1-yl)-ethanone]
0.73	230	CC(=O)N1CCN(Cc2cc3cc(Oc4ccc(-c5ccn[nH]5)cn4)ccc3[nH]2)CC1 [Example 222, 1-(4-{5-[5-(2H-Pyrazol-3-yl)-pyridin-2-yloxy]-1H-indol-2-ylmethyl}-piperazin-1-yl)-ethanone]
0.94	230	CC(=O)N1CCN(Cc2cc3cc(Oc4ccc(-c5ccn[nH]5)cn4)ccc3cn2)CC1 [Example 223, 1-(4-{6-[5-(2H-Pyrazol-3-yl)-pyridin-2-yloxy]-isoquinolin-3-ylmethyl}-piperazin-1-yl)-ethanone]
2.3	540	CC(=O)N1CCN(CCn2ccc3cc(Oc4ccc(-c5ccn[nH]5)cn4)ccc32)CC1 [Example 224, 1-[4-(2-{5-[5-(2H-Pyrazol-3-yl)-pyridin-2-yloxy]-indol-1-yl}-ethyl)-piperazin-1-yl]-ethanone]
0.13	130	c1cc(-c2ccc(Oc3ccc4[nH]c(CN5CCC(CN6CCOCC6)CC5)nc4c3)cc2)[nH]n1 [Example 225, 2-(4-Morpholin-4-ylmethyl-piperidin-1-ylmethyl)-5-[4-(2H-pyrazol-3-yl)-phenoxy]-1H-benzoimidazole]
0.3	170	CO[C@H]1CCN(Cc2nc3cc(Oc4ccc(-c5ccn[nH]5)cc4)ccc3[nH]2)C1 [Example 226, 2-((S)-3-Methoxy-pyrrolidin-1-ylmethyl)-5-[4-(2H-pyrazol-3-yl)-phenoxy]-1H-benzoimidazole]
0.054	170	c1cc(-c2ccc(Oc3ccc4[nH]c(CN5C[C@H]6CC[C@@H](C5)O6)nc4c3)cc2)[nH]n1 [Example 227, 3-{5-[4-(2H-Pyrazol-3-yl)-phenoxy]-1H-benzoimidazol-2-ylmethyl}-8-oxa-3-aza-bicyclo[3.2.1]octane]
0.16	180	COC1CCN(Cc2nc3cc(Oc4ccc(-c5ccn[nH]5)cc4)ccc3[nH]2)CC1 [Example 228, 2-(4-Methoxy-piperidin-1-ylmethyl)-5-[4-(2H-pyrazol-3-yl)-phenoxy]-1H-benzoimidazole]
0.22	190	CN(Cc1nc2cc(Oc3ccc(-c4ccn[nH]4)cc3)ccc2[nH]1)[C@H]1CCCC[C@@H]1O [Example 229, (1S,2S)-2-(Methyl-{5-[4-(2H-pyrazol-3-yl)-phenoxy]-1H-benzoimidazol-2-ylmethyl}-amino)-cyclohexanol]
0.19	200	CN(Cc1nc2cc(Oc3ccc(-c4ccn[nH]4)cc3)ccc2[nH]1)C1CCOCC1 [Example 230, Methyl-{5-[4-(2H-pyrazol-3-yl)-phenoxy]-1H-benzoimidazol-2-ylmethyl}-(tetrahydro-pyran-4-yl)-amine]
0.55	150	CC(=O)N1CCN(Cc2ccc3cc(Oc4ccc(-c5cc[nH]n5)cn4)ccc3n2)CC1 [Example 231, 1-(4-{6-[5-(1H-Pyrazol-3-yl)-pyridin-2-yloxy]-quinolin-2-ylmethyl}-piperazin-1-yl)-ethanone]
1.4	160	c1cc(-c2ccc(Oc3ccc4nc(OCCN5CCOCC5)sc4c3)cc2)n[nH]1 [Example 232, 2-(2-Morpholin-4-yl-ethoxy)-6-[4-(1H-pyrazol-3-yl)-phenoxy]-benzothiazole]
0.24	170	CN(Cc1nc2cc(Oc3ccc(-c4ccn[nH]4)cc3)ccc2[nH]1)C(=O)C1CC1 [Example 233, Cyclopropanecarboxylic acid methyl-{5-[4-(2H-pyrazol-3-yl)-phenoxy]-1H-benzoimidazol-2-ylmethyl}-amide]
